This note sets out measurements from article PMC5796017, “Enantiomeric Effect of D-Amino Acid Substitution on the Mechanism of Action of α-Helical Membrane-Active Peptides” (International Journal of Molecular Sciences, 2017).

In brackets after ≈: the same amount, converted by molar mass.

Data set [1] in a line: RP-HPLC retention time as relative hydrophobicity. Conditions: 25 °C, used by the paper as measure of relative hydrophobicity. Type of data set: physicochemical. The method, then:
The RP-HPLC retention time has been widely used to represent the relative hydrophobicity of peptides in many studies.The relative hydrophobicity of the peptides was determined by the RP-HPLC retention times at 25 °C. The change in hydrophobicity of the peptides caused by D-amino acid substitutions was mainly due to the disruption of the helical structure.

A further data set has as its system S. aureus ATCC25923. Put plainly: Antimicrobial activity, microtiter dilution MIC. Conditions: G+; MH medium, 5 × 10^5 CFU/mL, 37 °C, 24 h, triplicate. Type of data set: cell-based, Staphylococcus aureus. Put shortly: (§1)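 Broth microdilution in Mueller–Hinton medium, inoculum 5 × 10^5 CFU/mL, serially diluted peptide, 24 h at 37 °C. MIC taken as lowest peptide concentration preventing growth; triplicate runs.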

The subject of a further data set is P. aeruginosa ATCC27853. The experiment in a line: Antimicrobial activity, microtiter dilution MIC. The data set is classed as cell-based, Pseudomonas aeruginosa. Conditions: G−; MH medium, 5 × 10^5 CFU/mL, 37 °C, 24 h, triplicate. The method in brief: as §1
In data set [2] the test system is E. coli ATCC25922. Put plainly: Antimicrobial activity, microtiter dilution MIC. Type of data set: cell-based, Escherichia coli. Conditions: G−; MH medium, 5 × 10^5 CFU/mL, 37 °C, 24 h, triplicate. The method in brief: as §1
The next data set concerns BxPC-3. The experiment in a line: MTT cell viability assay. Type of data set: cell-based, human. Conditions: BxPC-3, MTT, 24 h; mean ± SEM of three independent determinations. The method in brief: (§2)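 Cells seeded at 5000 per well in DMEM/10% FBS, exposed to peptides for 24 h at 37 °C. Viability by MTT, formazan dissolved in DMSO, absorbance at 492 nm. IC50 is the concentration giving 50% viability loss; triplicate.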
Background: Tetrazolium assays rely on reduction of a dye to a coloured formazan, in cell work by metabolically active cells.

A further data set deals with HPAC. The experiment in a line: MTT cell viability assay. Type of data set: cell-based, human. The conditions noted are these: 24 h, mean ± SEM of three independent determinations. The method in brief:
as §2

In the next data set the test system is HeLa. The experiment in a line: MTT cell viability assay. The data set is classed as cell-based, human. Conditions: 24 h, mean ± SEM of three independent determinations. The method in brief: as §2
The test system of another data set is MIA PaCa-2. The experiment in a line: MTT cell viability assay. The data set is classed as cell-based, human. Conditions: MIA PaCa-2, MTT, 24 h; mean ± SEM of three independent determinations. The method in brief:
as §2

The test system of data set [3] is E. coli ATCC25922. Put plainly: Outer membrane permeability assay (NPN uptake). The data set is classed as cell-based, Escherichia coli. Conditions: 16 μM peptide, 10 min, excitation 350 nm, emission 420 nm. The source says: To explore the potential role of the helicity of the peptides in damaging cell membranes, we investigated the disruption of the outer membrane of Escherichia coli (E. coli) by quantifying the fluorescence intensity of 1-N-phenylnaphthylamine (NPN), which is a hydrophobic fluorescent probe. The intensity of NPN is weak in a hydrophilic environment. The fluorescence intensity of NPN gradually increases as it is exposed to a more hydrophobic environment due to damage to the bacterial outer membrane by MAPs.
The outer membrane permeability of the peptides against E. coli ATCC25922 was evaluated using the hydrophobic fluorescent probe NPN, as performed previously. In brief, E. coli was cultured in LB medium at 37 °C until the absorbance of the bacterial suspension at 600 nm was 0.4–0.6, the bacterial pellet was collected by centrifugation and resuspended in a reaction buffer (pH 7.4, 5 mM HEPES, 5 mM NaN3, 0.25 mM NPN) until the absorbance at 600 nm was 0.5. Then, an aliquot of the peptide sample and the bacterial suspension were co-incubated to give a final peptide concentration of 16 μM. The same volume of reaction buffer was used as the negative control. A Shimadzu RF-5301 PC fluorescent spectrometer (excitation wavelength of 350 nm, emission wavelength of 420 nm) was used to collect data continuously for 10 min.

For another data set, the system named is HeLa cells. The experiment in a line: AFM imaging. Type of data set: cell-based, human. The conditions noted are these: treatment 5 min, DMEM, AAC mode. The method, then:
The mechanism of the interaction of the peptides with the different kinds of membranes was further analyzed by AFM. E. coli and HeLa cells were imaged to observe the morphologic change of cell membranes with, and without, treatment with V13K. […] Similarly, the surface of untreated cells fixed with, or without, 4% paraformaldehyde were intact and the membrane surface appeared quite smooth (Figure 4E–H).
The AFM imaging of E. coli ATCC25922 and HeLa cells before, and after, incubation with V13K were performed using an AFM 5500 (Agilent Technologies, Chandler, AZ, USA). The AFM imaging of E. coli was used on the contact mode and the cantilever was used as the B-tip (DNP, B-tip, Bruker AFM probes, California, CA, USA). The AFM imaging of HeLa was used on the AAC mode and the cantilever was used as the D-tip (DNP, D-tip, Bruker AFM probes, Camarillo, California, CA, USA). A single bacterial colony was picked and cultured in Mueller–Hinton (MH) medium for 18–20 h. […] The E. coli and peptide-treated bacteria samples (after treatment for 30 min) were applied onto mica and imaged in air using the contact mode and recorded with 512 × 512 pixels. The images of HeLa cells and peptide-treated HeLa cells (after treatment for 5 min) were obtained in Dulbecco’s Modified Eagle’s medium (DMEM) using the Acoustic AC (AAC) mode and recorded with 512 × 512 pixels. […]

As for `CC[C@H](C)[C@H](NC(=O)[C@H](C)NC(=O)[C@H](CCCCN)NC(=O)[C@H](CC(C)C)NC(=O)[C@H](C)NC(=O)[C@@H](NC(=O)[C@H](Cc1cnc[nH]1)NC(=O)[C@H](CC(C)C)NC(=O)[C@@H](NC(=O)[C@@H](NC(=O)[C@H](CCCCN)NC(=O)[C@H](CCCCN)NC(=O)[C@H](C)NC(=O)[C@H](CO)NC(=O)[C@H](CCCCN)NC(=O)[C@H](Cc1ccccc1)NC(=O)[C@@H](NC(=O)[C@H](CCCCN)NC(=O)[C@H](CC(C)C)NC(=O)[C@H](Cc1ccccc1)NC(=O)[C@H](CO)NC(=O)[C@H](CCCCN)NC(=O)[C@H](Cc1c[nH]c2ccccc12)NC(=O)[C@H](CCCCN)NC(C)=O)[C@@H](C)O)[C@@H](C)O)C(C)C)[C@@H](C)O)C(=O)N[C@@H](CO)C(=O)N[C@@H](CO)C(N)=O` [Peptide V13K], the “tR (RP-HPLC retention time), relative hydrophobicity” value in data set [1] was found to be 44.48 min. Also, the figures for the MIC against S. aureus ATCC25923, in the data set with P. aeruginosa ATCC27853 and with E. coli ATCC25922 [2] were 32 µM (≈ 95.7 µg/mL), 8 µM (≈ 23.9 µg/mL) and 8 µM (≈ 23.9 µg/mL), respectively. Moreover, the IC50 (usually the midpoint of a concentration-inhibition curve) in the data set on BxPC-3 is 12.5 ± 1.2 µM; with HPAC, 7.6 ± 4 µM; in the data set on HeLa it was 16 ± 0.5 µM; with MIA PaCa-2, 24.8 ± 0.6 µM. Besides, the “Outer membrane permeabilization, NPN fluorescence intensity” value in the data set on E. coli ATCC25922 [3] is recorded as “enhanced”. Also, in the data set on HeLa cells, the “Morphology of HeLa cell membrane by AFM” value was “pores and cavities were visible on the surface of the cells”.
